Assay results from patent US9624214B2, “Amino-substituted imidazo[1,2-a]pyridinecarboxamides and their use” (BAYER PHARMA AKTIENGESELLSCHAFT, priority 2012, dated 2017).

Biological target: T1, recombinant guanylate cyclase reporter cell line (Rattus norvegicus, UniProt P19686+P20595)
T1 construct: expressed in transfected cells
T1 sequence (P20595 1-619): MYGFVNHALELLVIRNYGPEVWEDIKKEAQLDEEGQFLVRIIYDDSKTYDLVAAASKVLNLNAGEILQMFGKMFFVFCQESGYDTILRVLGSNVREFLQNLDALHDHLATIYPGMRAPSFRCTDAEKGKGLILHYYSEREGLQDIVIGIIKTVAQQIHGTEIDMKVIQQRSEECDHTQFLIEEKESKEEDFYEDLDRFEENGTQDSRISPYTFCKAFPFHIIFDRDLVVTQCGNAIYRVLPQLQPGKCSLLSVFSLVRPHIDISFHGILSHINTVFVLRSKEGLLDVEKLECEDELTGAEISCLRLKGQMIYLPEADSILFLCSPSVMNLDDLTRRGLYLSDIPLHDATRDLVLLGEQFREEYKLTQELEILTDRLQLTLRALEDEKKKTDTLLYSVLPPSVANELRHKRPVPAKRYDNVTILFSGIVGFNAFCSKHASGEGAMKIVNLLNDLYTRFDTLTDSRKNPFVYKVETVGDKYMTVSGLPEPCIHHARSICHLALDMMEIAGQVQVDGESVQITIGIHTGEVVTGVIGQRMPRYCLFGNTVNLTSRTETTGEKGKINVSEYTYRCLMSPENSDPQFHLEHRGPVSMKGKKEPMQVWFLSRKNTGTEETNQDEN
T1 sequence (P19686 1-690): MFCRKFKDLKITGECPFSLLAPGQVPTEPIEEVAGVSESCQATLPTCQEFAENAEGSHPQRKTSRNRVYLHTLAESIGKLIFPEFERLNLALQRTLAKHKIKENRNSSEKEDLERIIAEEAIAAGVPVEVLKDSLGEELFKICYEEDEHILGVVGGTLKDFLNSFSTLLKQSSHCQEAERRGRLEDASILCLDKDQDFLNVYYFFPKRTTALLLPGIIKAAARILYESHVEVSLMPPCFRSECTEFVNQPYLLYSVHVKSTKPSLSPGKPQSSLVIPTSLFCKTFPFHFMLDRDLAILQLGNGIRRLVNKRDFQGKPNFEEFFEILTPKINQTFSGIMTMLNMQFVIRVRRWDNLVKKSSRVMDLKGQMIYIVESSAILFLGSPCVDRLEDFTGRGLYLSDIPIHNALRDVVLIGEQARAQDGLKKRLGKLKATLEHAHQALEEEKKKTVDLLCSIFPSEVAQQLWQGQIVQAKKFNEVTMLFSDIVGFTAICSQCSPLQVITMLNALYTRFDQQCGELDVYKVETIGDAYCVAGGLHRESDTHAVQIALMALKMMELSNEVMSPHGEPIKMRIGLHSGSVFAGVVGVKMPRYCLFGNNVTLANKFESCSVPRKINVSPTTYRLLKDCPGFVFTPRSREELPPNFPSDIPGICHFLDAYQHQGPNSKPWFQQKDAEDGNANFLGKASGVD
Experiment: B-2. Action on recombinant guanylate cyclase reporter cell line
Assay type: cell-based
Settings: MEC = minimal effective concentration; in some cases mean values from individual determinations
Summary of the method: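 Compounds are tested on whole cells carrying a guanylate cyclase reporter construct. The lowest concentration giving an effect is recorded as the MEC.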

| Compound | MEC [µM] |
| --- | --- |
| Cc1cc(OCc2c(F)cccc2F)c2nc(C)c(C(=O)NCC(N)c3cc(F)c(F)c(F)c3)n2c1 (racemic) [Example 374, rac-N-[2-amino-2-(3,4,5-trifluorophenyl)ethyl]-8-[(2,6-difluorobenzyl)oxy]-2,6-dimethylimidazo[1,2-a]pyridine-3-carboxamide] | 1.00 |
| Cc1cc(OCc2c(F)cccc2F)c2nc(C)c(C(=O)NCC(N)c3cccc(OC(F)F)c3)n2c1 (racemic) [Example 375, rac-N-{2-amino-2-[3-(difluoromethoxy)phenyl]ethyl}-8-[(2,6-difluorobenzyl)oxy]-2,6-dimethylimidazo[1,2-a]pyridine-3-carboxamide] | 3.00 |
| Cc1cc(OCc2c(F)cccc2F)c2nc(C)c(C(=O)NCC(N)c3cccc(C(F)(F)F)c3)n2c1 (racemic) [Example 376, rac-N-{2-amino-2-[3-(trifluoromethyl)phenyl]ethyl}-8-[(2,6-difluorobenzyl)oxy]-2,6-dimethylimidazo[1,2-a]pyridine-3-carboxamide] | 3.00 |
| Cc1cc(OCc2c(F)cccc2F)c2nc(C)c(C(=O)NCC(N)c3cccc(OC(F)(F)F)c3)n2c1 (racemic) [Example 377, rac-N-{2-amino-2-[3-(trifluoromethoxy)phenyl]ethyl}-8-[(2,6-difluorobenzyl)oxy]-2,6-dimethylimidazo[1,2-a]pyridine-3-carboxamide] | 3.00 |
| COc1cccc(C(N)CNC(=O)c2c(C)nc3c(OCc4c(F)cccc4F)cc(C)cn23)c1 (racemic) [Example 378, rac-N-[2-amino-2-(3-methoxyphenyl)ethyl]-8-[(2,6-difluorobenzyl)oxy]-2,6-dimethylimidazo[1,2-a]pyridine-3-carboxamide] | 1.00 |
| Cc1cc(OCc2c(F)cccc2F)c2nc(C)c(C(=O)NC(CN)c3ccc4ccccc4c3)n2c1 (racemic) [Example 379, rac-N-[2-amino-1-(2-naphthyl)ethyl]-8-[(2,6-difluorobenzyl)oxy]-2,6-dimethylimidazo[1,2-a]pyridine-3-carboxamide] | 1.00 |
| Cc1cc(OCc2c(F)cccc2F)c2nc(C)c(C(=O)NC(CN)c3cccc(OC(F)(F)F)c3)n2c1 (racemic) [Example 380, rac-N-{2-amino-1-[3-(trifluoromethoxy)phenyl]ethyl}-8-[(2,6-difluorobenzyl)oxy]-2,6-dimethylimidazo[1,2-a]pyridine-3-carboxamide] | 1.00 |
| Cc1cc(OCc2c(F)cccc2F)c2nc(C)c(C(=O)NC(CN)c3ccc4c(c3)OCO4)n2c1 (racemic) [Example 381, rac-N-[2-amino-1-(1,3-benzodioxol-5-yl)ethyl]-8-[(2,6-difluorobenzyl)oxy]-2,6-dimethylimidazo[1,2-a]pyridine-3-carboxamide] | 0.30 |
| COc1cccc(C(CN)NC(=O)c2c(C)nc3c(OCc4c(F)cccc4F)cc(C)cn23)c1 (racemic) [Example 382, rac-N-[2-amino-1-(3-methoxyphenyl)ethyl]-8-[(2,6-difluorobenzyl)oxy]-2,6-dimethylimidazo[1,2-a]pyridine-3-carboxamide] | 0.30 |
| Cc1cc(OCc2c(F)cccc2F)c2nc(C)c(C(=O)NC(CN)c3cccc(Br)c3)n2c1 (racemic) [Example 383, rac-N-[2-amino-1-(3-bromophenyl)ethyl]-8-[(2,6-difluorobenzyl)oxy]-2,6-dimethylimidazo[1,2-a]pyridine-3-carboxamide] | 0.30 |
| Cc1cc(OCc2c(F)cccc2F)c2nc(C)c(C(=O)NC(CN)c3ccc([N+](=O)[O-])cc3)n2c1 (racemic) [Example 384, rac-N-[2-amino-1-(4-nitrophenyl)ethyl]-8-[(2,6-difluorobenzyl)oxy]-2,6-dimethylimidazo[1,2-a]pyridine-3-carboxamide] | 0.30 |
| C=Cc1cccc(C(CN)NC(=O)c2c(C)nc3c(OCc4c(F)cccc4F)cc(C)cn23)c1 (racemic) [Example 385, rac-N-[2-amino-1-(3-ethenylphenyl)ethyl]-8-[(2,6-difluorobenzyl)oxy]-2,6-dimethylimidazo[1,2-a]pyridine-3-carboxamide] | 1.00 |
| COc1ccc(CC(C)(CN)NC(=O)c2c(C)nc3c(OCc4c(F)cccc4F)cc(C)cn23)cc1 (racemic) [Example 386, rac-N-[1-amino-3-(4-methoxyphenyl)-2-methylpropan-2-yl]-8-[(2,6-difluorobenzyl)oxy]-2,6-dimethylimidazo[1,2-a]pyridine-3-carboxamide] | 0.65 |
| Cc1cc(OCc2c(F)cccc2F)c2nc(C)c(C(=O)NC(CN)c3cnn(C)c3)n2c1 (racemic) [Example 387, rac-N-[2-amino-1-(1-methyl-1H-pyrazol-4-yl)ethyl]-8-[(2,6-difluorobenzyl)oxy]-2,6-dimethylimidazo[1,2-a]pyridine-3-carboxamide] | 10.0 |
| Cc1cc(OCc2c(F)cccc2F)c2nc(C)c(C(=O)NC(CN)c3ccc4c(c3)OCCO4)n2c1 (racemic) [Example 388, rac-N-[2-amino-1-(2,3-dihydro-1,4-benzodioxin-6-yl)ethyl]-8-[(2,6-difluorobenzyl)oxy]-2,6-dimethylimidazo[1,2-a]pyridine-3-carboxamide] | 0.30 |
| Cc1cc(OCc2c(F)cccc2F)c2nc(C)c(C(=O)NC(CN)c3csc4ccccc34)n2c1 (racemic) [Example 389, rac-N-[2-amino-1-(1-benzothiophen-3-yl)ethyl]-8-[(2,6-difluorobenzyl)oxy]-2,6-dimethylimidazo[1,2-a]pyridine-3-carboxamide] | 1.00 |
| Cc1cc(OCc2c(F)cccc2F)c2nc(C)c(C(=O)NC(CN)c3cc(F)c(F)c(F)c3)n2c1 (racemic) [Example 390, rac-N-[2-amino-1-(3,4,5-trifluorophenyl)ethyl]-8-[(2,6-ifluorobenzyl)oxy]-2,6-dimethylimidazo[1,2-a]pyridine-3-carboxamide] | 0.30 |
| CSCCC(CN)NC(=O)c1c(C)nc2c(OCc3c(F)cccc3F)cc(C)cn12 (racemic) [Example 391, rac-N-[1-amino-4-(methylsulfanyl)butan-2-yl]-8-[(2,6-difluorobenzyl)oxy]-2,6-dimethylimidazo[1,2-a]pyridine-3-carboxamide] | 0.10 |
| Cc1cc(OCc2c(F)cccc2F)c2nc(C)c(C(=O)NC(CN)c3cccc(OC(F)F)c3)n2c1 (racemic) [Example 392, rac-N-{2-amino-1-[3-(difluoromethoxy)phenyl]ethyl}-8-[(2,6-difluorobenzyl)oxy]-2,6-dimethylimidazo[1,2-a]pyridine-3-carboxamide] | 1.00 |
| Cc1cc(OCc2c(F)cccc2F)c2nc(C)c(C(=O)NC(CN)c3cccc(OCCO)c3)n2c1 (racemic) [Example 393, rac-N-{2-amino-1-[3-(2-hydroxyethoxy)phenyl]ethyl}-8-[(2,6-difluorobenzyl)oxy]-2,6-dimethylimidazo[1,2-a]pyridine-3-carboxamide] | 1.00 |
| Cc1cc(OCc2c(F)cccc2F)c2nc(C)c(C(=O)NC(CN)c3cccc(C(F)(F)F)c3)n2c1 (racemic) [Example 394, rac-N-{2-amino-1-[3-(trifluoromethyl)phenyl]ethyl}-8-[(2,6-difluorobenzyl)oxy]-2,6-dimethylimidazo[1,2-a]pyridine-3-carboxamide] | 0.30 |
| Cc1cc(OCc2c(F)cccc2F)c2nc(C)c(C(=O)NC(CN)c3ccc4ncccc4c3)n2c1 (racemic) [Example 395, rac-N-[2-amino-1-(quinolin-6-yl)ethyl]-8-[(2,6-difluorobenzyl)oxy]-2,6-dimethylimidazo[1,2-a]pyridine-3-carboxamide] | 1.00 |
| CC(=O)Nc1cccc(C(CN)NC(=O)c2c(C)nc3c(OCc4c(F)cccc4F)cc(C)cn23)c1 (racemic) [Example 396, rac-N-[1-(3-acetamidophenyl)-2-aminoethyl]-8-[(2,6-difluorobenzyl)oxy]-2,6-dimethylimidazo[1,2-a]pyridine-3-carboxamide] | 3.00 |
